Experimental data: patent US20140315738A1, “MARINE MEDAKA GENES RESPONDING TO THE EXPOSURE OF ENDOCRINE-DISRUPTING CHEMICALS, AND METHOD FOR DIAGNOSING AN AQUATIC ECO-SYSTEM CONTAMINATION USING SAME” (priority 2011, published 2014)

Tested on: Javanese medaka (Oryzias javanicus) livers
Format: in vivo
Settings: 76 μg/L, 48 hr, liver
Description: Javanese medaka was cultured in natural seawater filtered through three types of filters (10, 10 and 1 μm). Water temperature was fixed at 25° C. with underwater heater, and Artemia salina nauplii were fed once a day.
To 3 L beaker with 2 L filtered seawater therein, 10 male Javanese medaka bred in culture water tank were transported each time, and acclimated for 24 hr. […] Additionally, five Javanese medaka of Example <1-1> were exposed to BPA (76 μg/L) for 48 hr. […] The Javanese medaka was transported to ice water, one at a time, which momentarily stunned it, followed by beheading and evisceration and liver removal.
To the Javanese medaka livers of BPA exposed group (48 hr) produced from Example <1-2>, and of control group without exposure, 1 ml of TRI Reagent solution (Molecular Research Center Inc, Cincinnati, Ohio, USA) was added, homogenized with glass homogenizer, and left at room temperature for 5 min. Next, chloroform (200 μl) was added and mixed, left at room temperature for 10 min. After centrifugation for 15 min (12,000×g, 4° C.), supernatant was obtained, to which isopropanol (500 μl) was added and left at room temperature for 5 min. After centrifugation for about 20 min (12,000×g, 4° C.), solution was removed, thus leaving precipitate. To the precipitate, 70% ethanol solution (50 μl) was added and after centrifugation for 5 min, ethanol solution was removed, and the precipitate RNA was dried. After drying, the product was dissolved in appropriate amount of DEPC (diethylpyrocarbonate)-treated water.
The entire RNA of the distilled exposed group and non-exposed group were labeled with Cy3 and Cy5 as follows, using Agilent's Low RNA Input Linear Amplification Kit Plus (Agilent Technologies, USA). To be specific, RNA (1 μg) was mixed with dT-promoter primer and MMLV-Reverse transcriptase. After reverse transcription at 40° C. for 2 hr, T7 polymerase was added, and linear amplification was done at 40° C. for 2 hr. After the amplification process explained above, the samples of experimental and control groups were labeled with Cy3-CTP and Cy5-CTP, respectively.
Fluorescent-labeled cDNA sample was purified with Qiagen PCR purification kit, and eluted with distilled water. The purified, fluorescent-labeled cDNA sample was added to hybridization buffer (3×SSC, 0.3% SDS, 50% formamide, 20 μg Cot-1 DNA, 20 μg yeast tRNA), and concentrated with microcon YM-30. After hybridization, the hybridized compound was heated at 95° C. for 3 min for denaturization, and the temperature of the heated, hybridized compound was decreased by centrifugation for 30 sec at 12,000 g. The produced Javanese medaka cDNA microarray was covered with coverslip, and the denaturized, hybridized compound was pipetted. The microarray was put into GT-Hyb chamber for reaction to occur at 65° C. for 16 hr. After hybridization, the microarray was taken out of the chamber, underwent cleansing process as explained below, rotated and dried, and stored in a dark room until scanning. The Javanese medaka microarray was then scanned with Axon GenePix 4000B scanner (Axon Instrument, USA). On the GenePix Pro 6.0 program, dots from the scanned image were gridded using gridding file, and quantified to produce GPR file including analysis on cy5/Cy3 magnitudes and ratios.
Based on the GPR file obtained with the GenePix Pro Program, the following analysis was made using analysis program, i.e., GeneSpring 7.3.1 (Agilent Technologies, USA). Normalization: by LOWESS (locally weighted regression scatterplot smoothing). Reliable gene): significant genes were obtained by flagging out dots whose sums of medial values were less than the background, or dots whose standard deviations of pixel values are not significant. Significant genes: dots whose normalized ratio is at […] higher interval, were screened. […]

[1] = Down-regulation, + = increased expression level
[2] = Up-regulation, − = decreased expression level

CC(C)(c1ccc(O)cc1)c1ccc(O)cc1 [BPA, Bisphenol A]
Fold difference, 40S ribosomal protein S19 (No. 115) [1]: +2.00 fold
Fold difference, ATP citrate lyase (ACLY), transcript variant 2 (No. 154) [1]: +2.84 fold
Fold difference, ATP-binding cassette transporter sub-family G member 2b (No. 146) [1]: +2.59 fold
Fold difference, GTP cyclohydrolase 1 precursor (No. 148) [1]: +2.60 fold
Fold difference, Iron-responsive element-binding protein 1 (No. 141) [1]: +2.25 fold
Fold difference, Isocitrate dehydrogenase (No. 153) [1]: +2.72 fold
Fold difference, NADH dehydrogenase subunit 4 (No. 126) [1]: +2.08 fold
Fold difference, Nedd4 family interacting protein 2 (No. 132) [1]: +2.13 fold
Fold difference, Restin (Cytoplasmic linker protein-170 alpha-2) (No. 133) [1]: +2.14 fold
Fold difference, Ribosomal protein S14, transcript variant 4 (No. 158) [1]: +3.11 fold
Fold difference, TBT-binding protein (No. 120) [1]: +2.02 fold
Fold difference, Thyroid hormone receptor-associated protein complex 150 kDa component (No. 149) [1]: +2.62 fold
Fold difference, Transforming growth factor-beta-induced protein ig-h3 (No. 114) [1]: +2.00 fold
Fold difference, Translation initiation factor eIF-2B subunit epsilon (No. 157) [1]: +3.00 fold
Fold difference, Transmembrane protein 85 (No. 159) [1]: +5.22 fold
Fold difference, adult alpha-type globin (No. 147) [1]: +2.59 fold
Fold difference, alcohol dehydrogenase Class VI (ADH8) (No. 116) [1]: +2.01 fold
Fold difference, alpha-2-macroglobulin (No. 119) [1]: +2.01 fold
Fold difference, alpha-2-macroglobulin-2 (No. 123) [1]: +2.03 fold
Fold difference, apolipoprotein A-IV4 (No. 156) [1]: +2.94 fold
Fold difference, arginyl-tRNA synthetase (No. 145) [1]: +2.52 fold
Fold difference, calreticulin (No. 142) [1]: +2.25 fold
Fold difference, carboxyl ester lipase, tandem duplicate 2 (No. 118) [1]: +2.01 fold
Fold difference, catalase (No. 135) [1]: +2.16 fold
Fold difference, choriogenin L (No. 130) [1]: +2.12 fold
Fold difference, chymotrypsinogen 2-like protein (No. 140) [1]: +2.22 fold
Fold difference, complement component C9 (No. 122) [1]: +2.03 fold
Fold difference, complement factor B/C2-B (No. 131) [1]: +2.12 fold
Fold difference, complement regulatory plasma protein (No. 128) [1]: +2.11 fold
Fold difference, cyclin B2 (No. 152) [1]: +2.66 fold
Fold difference, cyclin Y-like 1 (No. 127) [1]: +2.09 fold
Fold difference, decorin mRNA (No. 155) [1]: +2.87 fold
Fold difference, delta 6-desaturase (No. 143) [1]: +2.39 fold
Fold difference, glutathione S transferase Rho-class (No. 162) [1]: +6.90 fold
Fold difference, heat shock protein 84b (No. 160) [1]: +5.53 fold
Fold difference, hepcidin-like precursor (No. 125) [1]: +2.07 fold
Fold difference, hypoxanthine phosphoribosyltransferase 1 (No. 138) [1]: +2.17 fold
Fold difference, kelch domain containing 10 (No. 144) [1]: +2.42 fold
Fold difference, kelch-like ECH-associated protein 1b (No. 124) [1]: +2.06 fold
Fold difference, keratin 15 (No. 121) [1]: +2.02 fold
Fold difference, malate dehydrogenase (No. 117) [1]: +2.01 fold
Fold difference, ornithine decarboxylase antizyme large isoform ORF1 (No. 134) [1]: +2.15 fold
Fold difference, protein kinase C and casein kinase substrate in neurons 2 (No. 129) [1]: +2.12 fold
Fold difference, protein phosphatase 2A regulatory subunit B′ delta isoform (No. 151) [1]: +2.63 fold
Fold difference, ring finger protein 141 (No. 136) [1]: +2.16 fold
Fold difference, sex hormone-binding globulin (No. 150) [1]: +2.62 fold
Fold difference, warm-temperature-acclimation-related-65 kDa-protein (C79) (No. 161) [1]: +5.88 fold
Fold difference, 5,10-methylenetetrahydrofolate reductase (NADPH)-like mRNA (No. 106) [2]: −2.06 fold
Fold difference, 40S ribosomal protein S18 (No. 89) [2]: −2.43 fold
Fold difference, 60S acidic ribosomal protein P1 (No. 100) [2]: −2.13 fold
Fold difference, ATPase, H+ transporting, lysosomal, V1 subunit E isoform 1 (No. 109) [2]: −2.04 fold
Fold difference, DEAD-box RNA-dependent helicase p68 mRNA (No. 113) [2]: −2.01 fold
Fold difference, Glycerol-3-phosphate dehydrogenase (No. 80) [2]: −3.03 fold
Fold difference, HSPC038 protein (No. 79) [2]: −3.05 fold
Fold difference, MHC Class I Region (No. 74) [2]: −3.70 fold
Fold difference, Putative transmembrane 4 superfamily member protein (No. 111) [2]: −2.02 fold
Fold difference, TRAF-binding protein (No. 78) [2]: −3.17 fold
Fold difference, Transcription initiation factor IIA gamma chain (No. 108) [2]: −2.06 fold
Fold difference, Uridine phosphorylase 1 (No. 99) [2]: −2.16 fold
Fold difference, bromodomain containing 2 (RING3) gene (No. 92) [2]: −2.35 fold
Fold difference, c-type lysozyme mRNA (No. 98) [2]: −2.18 fold
Fold difference, carnitine O-acetyltransferase precursor (No. 83) [2]: −2.78 fold
Fold difference, cathepsin F (No. 105) [2]: −2.08 fold
Fold difference, choriogenin Hminor (No. 102) [2]: −2.09 fold
Fold difference, cyclin G2 (No. 95) [2]: −2.27 fold
Fold difference, cysteine dioxygenase (No. 94) [2]: −2.32 fold
Fold difference, estrogen receptor beta 2 (No. 91) [2]: −2.37 fold
Fold difference, eukaryotic peptide chain release factor GTP-binding subunit (No. 88) [2]: −2.45 fold
Fold difference, glucose-regulated protein 94 (No. 104) [2]: −2.09 fold
Fold difference, glutathione S-transferase (No. 93) [2]: −2.33 fold
Fold difference, heart-type fatty acid-binding protein (No. 101) [2]: −2.12 fold
Fold difference, leukocyte elastase inhibitor (No. 110) [2]: −2.04 fold
Fold difference, mitogen-activated protein kinase 1 (No. 107) [2]: −2.06 fold
Fold difference, mitogen-activated protein kinase (p38) (No. 112) [2]: −2.02 fold
Fold difference, muscleblind mRNA (No. 85) [2]: −2.53 fold
Fold difference, phosphoenolpyruvate carboxykinase (No. 86) [2]: −2.51 fold
Fold difference, proline rich 6 (No. 71) [2]: −5.99 fold
Fold difference, proteasome subunit, beta type 8 (No. 81) [2]: −2.96 fold
Fold difference, protein kinase C and casein kinase substrate in neurons 1 (No. 96) [2]: −2.22 fold
Fold difference, protein phosphatase 2 regulatory subunit B beta (No. 87) [2]: −2.50 fold
Fold difference, protein tyrosine phosphatase-like, member b (No. 77) [2]: −3.23 fold
Fold difference, retinoid X receptor beta (RXRB) gene (No. 76) [2]: −3.42 fold
Fold difference, ribosomal protein L13 (No. 103) [2]: −2.09 fold
Fold difference, septin 7b (sept7b), transcript variant 1 (No. 97) [2]: −2.20 fold
Fold difference, telomerase reverse transcriptase gene (No. 72) [2]: −4.31 fold
Fold difference, trypsinogen (No. 82) [2]: −2.88 fold
Fold difference, trypsinogen (No. 90) [2]: −2.42 fold
Fold difference, tubulin, beta 5 (No. 84) [2]: −2.56 fold
Fold difference, uridine phosphorylase 2 (No. 73) [2]: −3.77 fold
Fold difference, vitellogenin II (No. 75) [2]: −3.69 fold
